From US20110105389A1 (priority 2009, published 2011) come the findings set out here.

The test system of one data set is male ob/ob mice. Kind of data set: Subchronic oral administration in male ob/ob mice (7, 15 and 28 day protocols), Method B15. Type of data set: in vivo, mouse. The source says: B15. Effects of Subchronic Administration of Compounds of the Invention in Male ob/ob Mice
The objective of this study is to determine the subchronic effects of test compounds on body weight change, food and water consumption, as well as glucose homeostasis and insulin levels in male ob/ob mice upon oral administration for up to 7 days. The male ob/ob mouse was selected as a type 2 diabetes (T2DM) and genetically defined obesity model which is sensitive to the effect of different insulin sensitizers in acute as well as in chronic settings.
A similar study in this model was conducted to determine the acute and subchronic effects of test compounds on body weight change, food and water consumption, glucose homeostasis, insulin and glucagon levels, as well as lipid profile and brain penetration upon oral administration to the male ob/ob mice for up to 28 days.
Mice were individually housed in rodent cages with soft wood bedding on the bottom and equipped with water bottles. All cages were clearly labeled with a cage card indicating study number, group, animal number and dose level. Each animal was uniquely identified by an animal number marked on their tail with indelible ink. The animal number was designated the day the animals arrive at the animal facility. The animal room environment was controlled (targeted ranges: temperature 22±2° C.; relative humidity 50±10%; light/dark cycle: 12 hours light, 12 hours dark, lights on from 06:00 AM to 06:00 PM). A regular rodent diet (Charles River 5075 rodent chow, Purina Mills, Canada) was provided to the animals ad libitum. Municipal tap water was provided to the animals ad libitum via water bottles. Fresh tap water was provided after water bottle weighing. An acclimation period of approximately 7 days for all groups was allowed between the receipt of animals and the start of treatment to accustom the […] to the laboratory environment. On experimental Day −7, animals were stratified according to body weight and glycemia into an appropriate number of groups of 5 or 10 animals and two groups of 5 animals.
Test compounds were administered, as a solution, orally, at the doses indicated. The dose volume will be 5 mL/kg/day. Groups were dosed once daily around 4:00 p.m. As positive controls, rosiglitazone (Avandia®), an approved anti-diabetic drug of the thiazolidinediones family (ppar gamma agonist) which has been specifically reported to normalize glycemia in the ob/ob mouse model (Liu et al., J. Med. Chem.; 46: 2093-2103, 2003) was used. The CB1 receptor antagonist rimonabant (Accomplia®) was reported to reduce body weight and food intake in different models of Type 2 diabetes and obesity and was also employed (Rasmussen and Huskinson Behavioral Pharmacol. 2008, 19, 735-742,; Bobo, G.; et al. Hepathology 2007, 46, 122-129; Di Marzo; et al., Nature 2001, 410, 822-825).
For, the study animals, the data collected from study Day −7 to Day 8 were reported. Body weights were recorded for all animals on Day −7 prior to initiation of dosing, at the time of group assignment and daily throughout the study period (Day 1-8). Food and water intake was Measured 4 hrs post-dosing, 2 hrs after the beginning of the dark cycle (around 8:00 p.m.) on Day 1 and 7 (Subset A) as well as on Day 2 and 8 (Subset B) and then daily in 24 h intervals from Day 3 through Day 8. On Day 1 (Subset A) and Day 2 (Subset B), blood was sampled from 3 animals/group from Groups 2 through 4 into EDTA coated tubes (K2-EDTA microtainer tubes, Becton Dickinson) from a tail vein (˜100 μL) 4 hrs post-dose for PK analysis. Blood was centrifuged at 4000 rpm for 10 min. at 4° C., and the resulting plasma transferred into non-coated tubes and stored at −80° C. until analysis. The same procedures were repeated on Day 7 (Subset A) and Day 8 (Subset B) 24 hrs post-dose. […]

The target of the next data set is CYP2D6 (Homo sapiens, UniProt P10635). The experiment in a line: Cytochrome P450 inhibition, Method B6. The note with it: read-out: IC50 CYP 2D6; Table 4a; dextromethorphan used as substrate.
Chain of CYP2D6 (P10635 whole entry): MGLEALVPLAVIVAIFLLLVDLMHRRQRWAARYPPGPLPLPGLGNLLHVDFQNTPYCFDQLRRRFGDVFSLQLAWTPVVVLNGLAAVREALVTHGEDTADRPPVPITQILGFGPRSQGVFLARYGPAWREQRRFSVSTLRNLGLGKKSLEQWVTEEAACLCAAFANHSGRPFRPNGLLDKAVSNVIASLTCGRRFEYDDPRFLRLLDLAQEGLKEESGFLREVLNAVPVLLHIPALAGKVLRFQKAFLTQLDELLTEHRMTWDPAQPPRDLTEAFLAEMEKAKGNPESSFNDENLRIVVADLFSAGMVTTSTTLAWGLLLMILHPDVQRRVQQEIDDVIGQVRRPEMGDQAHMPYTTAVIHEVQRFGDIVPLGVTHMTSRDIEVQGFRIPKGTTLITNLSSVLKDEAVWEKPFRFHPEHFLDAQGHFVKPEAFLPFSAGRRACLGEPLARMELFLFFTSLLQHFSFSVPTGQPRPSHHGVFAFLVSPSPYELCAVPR
For another data set, the system named is Caco-2 cells. Kind of data set: Caco-2 permeability, Method B7. Type of data set: in vitro ADME, human. The following applies: for A to B Mean Papp / B to A Mean Papp: Caco-2, 10 μM, without P-gp inhibitor; for Efflux ratio Papp B2A/Papp A2B: Caco-2, without P-gp inhibitor. The source says: B7. Determination of Caco-2 Permeability
The Caco-2 cell line, derived from a human colorectal carcinoma, has become an established in vitro model for the prediction of drug absorption across the human intestine. (Sun, D.; Yu, L. X.; Hussain, M. A.; Wall, D. A.; Smith, R. L.; Amidon, G. L. Curr. Opin. Drug Discov. Devel. 2004, 7, 75-85; Bergstrom, C. A. Basic Clin. Pharmacol. Toxicol. 2005, 96, 156-61; Balimane, P. V.; Han, Y. H.; Chong, S. AAPS J. 2006, 8, E1-13; Shah, P.; Jogani, V.; Bagchi, T.; Misra, A. Biotechnol. Prog. 2006, 22, 186-198.) When cultured on semi-permeable membranes, Caco-2 cells differentiate into a highly functionalized epithelial barrier with remarkable morphological and biochemical similarity to the small intestinal columnar epithelium. Fully differentiated cell monolayers can be used to assess the membrane transport properties of novel compounds.
Assays to determine the permeability of compounds of the invention utilizing Caco-2 cells are commercially available, for example NoAb BioDiscoveries (Mississaugua, ON, Canada) and Absorption Systems (Exton, Pa., USA).
Permeability across the Caco-2 cell layer was determined by growing the cells on a membrane placed between two (donor and acceptor) chambers. Drug candidates are typically added to the apical (A) side of the cell layer and their appearance in the basolateral (B) side is measured over incubation time. Permeability in this direction represents intestinal absorption. Permeability may also be determined from the basolateral to the apical side of the Caco-2 cell. […]
Permeability (10 μM) for compounds of the invention in the apical to basolateral and basolateral to apical direction were tested in duplicate. Samples will be collected from the donor and acceptor chambers at the beginning (0 min) and following 60 min of incubation at 37° C. and stored frozen at −70° C. until bioanalysis. Samples for each test compound generated from the Caco-2 permeability assay were further analyzed by LC-MS-MS. The permeability of [^3H]-mannitol and [^3H]-propranolol were determined in parallel as controls.
The permeability coefficient (Papp) of each compound and radiolabeled standard was determined using the following equation: […]
where dQ/dT represents the permeability rate, Ci denotes the initial concentration in the donor compartment, and A represents the surface area of the filter. Ci is determined from the mean concentration of duplicate samples taken prior to addition to the donor compartment. Permeability rates were calculated by plotting the cumulative amount of compound measured in the acceptor compartment over time and determining the slope of the line by linear regression analysis. The duplicate and mean apical to basolateral and basolateral to apical Papp's were reported for each compound and standard. […]
(Passage across Caco-2 layers is used to estimate intestinal permeability.)

[1] abbreviates: vs vehicle control mice, FIG. 13.

Consider `CC(C)[C@@H]1NCCOc2ccccc2C#CCNC(=O)[C@@H](Cc2ccccc2)NC(=O)[C@H](C(C)O)N(C)C1=O` (stereo partly drawn) [Compound 1712], for which the “acute cumulative food intake” value in the data set on male ob/ob mice (over a 2 hr period, fasted animals, vs vehicle control, FIG. 11) is “significantly reduced”.

In general, IC50 refers to the point on the concentration scale where inhibition reaches its midpoint. Take `CC(C)[C@@H]1NCC2CCc3cccc(c3O2)CCCNC(=O)[C@@H](Cc2ccccc2)NC(=O)[C@H](C(C)O)N(C)C1=O` (stereo partly drawn) [Compound 1777]: the IC50 on CYP2D6 was 11.8 µM. In the data set on Caco-2 cells, the A to B Mean Papp is 0.274 ×10⁻⁶ cm/s, the B to A Mean Papp is 53.5 ×10⁻⁶ cm/s and the “Efflux ratio Papp B2A/Papp A2B” value came to 195.

As for `CC(C)[C@@H]1NCCOc2ccccc2C2CCC(C2)NC(=O)[C@@H](Cc2c[nH]c3ccccc23)NC(=O)[C@H](C(C)O)N(C)C1=O` (stereo partly drawn) [Compound 1843], the IC50 on CYP2D6 amounted to 7.7 µM. In the data set on Caco-2 cells, the A to B Mean Papp turned out to be 0.142 ×10⁻⁶ cm/s, the B to A Mean Papp was determined as 13.4 ×10⁻⁶ cm/s and the “Efflux ratio Papp B2A/Papp A2B” value is listed as 95.

As for `CC(C)[C@@H]1NCCOc2ccccc2C2CCC(C2)NC(=O)[C@@H](Cc2ccccc2)NC(=O)[C@H](C(C)O)N(C)C1=O` (stereo partly drawn) [Compound 1848], in the data set with male ob/ob mice (75 mg/kg, vs vehicle control), the “blood glucose levels during oral glucose tolerance test” value is “significant decrease”. The “reduction in cumulative food intake” value in the data set on male ob/ob mice (po, 75 mg/kg, 336 h) stood at 11.9%. The insulin sensitivity result with male ob/ob mice (treated ob/ob mice) is “improvement”. Further, in the data set with male ob/ob mice (setting [1]), the “free fatty acids (FFAs)” value is “significantly reduced”, the glucagon entry is recorded as “significantly reduced”, the insulin result is given as “significantly reduced” and the non-fasting glucose entry is “significantly reduced”. In the data set on male ob/ob mice (setting [1]), the “total cholesterol level significantly reduced” value is “not” and the “triglycerides level significantly reduced” value was “not”.
